Laboratory results: patent US8551470B2, “Use of substance P for mobilization of Mesenchymal stem cells or proliferation of Mesenchymal stem cells and for wound healing or facilitating wound healing” (Korea Institute of Radiological & Medical Sciences, priority 2004, dated 2013)

Key:
human MSCs [1] = assay: MSC migration and collagen degradation on 3-D collagen gel; assay type: cell-based; conditions: human MSCs on 3-D collagen gel, Substance-P in bottom dishes (0-100 nM), 72 h
Text: In order to determine the mechanism of Substance-P in the mobilization of MSCs, which are strongly attached onto the endosteal surface of bone marrow, Substance-P was first examined to determine whether it stimulates migration of human MSCs cultured on top of the 3-D collagen gel. The type I collagen gel matrix was made within a 12 mm millicell membrane (milipore: 12-μm pore size) according to the manufacturer's specifications (Nitta gelatin, Japan) and coated overnight with type IV collagen (Nitta). The MSCs were plated on top of the collagen gel, and the outer chamber was filled with Substance-P-containing MSCGM (Cambrex Bio Science). Clearance of the collagen gel was monitored by using the phase contrast microscopy (Olympus). At 72 h, the millicell insert and outer dishes were fixed and stained with hematoxylin, and then the culture supernatants were stored for gelatin zymography.

VEGF and fibronectin = assay: ELISA and Western blot analysis of VEGF and fibronectin in MSC culture supernatants; assay type: cell-based, human
Description: ELISA and Western blot analysis of fibronectin and VEGF, which are down stream genes of Tcf/β-catenin, were carried out.

human MSCs [2] = assay: Viable cell count (triphan blue exclusion) of MSCs after Substance-P treatment; assay type: cell-based; conditions: 3 day
Text: At 3 day after the treatment of Substance-P, the triphan blue excluded viable cells were counted.

cornea wound = assay: Corneal alkali burn rabbit model with intravenous injection of Substance-P; assay type: in vivo
Text: New Zealand white rabbits weighing 2-3 kg were purchased from Samtako BioKorea. All these animal experiments were approved by Ethical Committee, Korea Institute of Radiological and Medical Sciences, and Chung-Ang University, and conducted in accordance with the ARVO Statement for the Use of Animal in Ophthalmic and Vision Research. For the alkali burn, the rabbit eyes were placed in contact with a 6 mm piece of circular Whatman filter paper soaked in 1N NaOH for 30 seconds. At 1, 3, 5, 7, 10 and 14 day after the alkali burn, rabbit eyes and whole blood were isolated.
Thus, it was examined whether or not Substance-P only can stimulate corneal wound healing. To estimate the effect of Substance-P intravenous injection on acceleration of the wound healing, Substance-P at dosage 6.5 ug/kg was intravenously injected firstly immediately after the injury, and then secondly on 2nd day after the wound. At day 7 after the intravenous injection, cornea recovery was estimated by naked eyes with taking digital picture. […] The intravenous injection of Substance-P strongly expedited the cornea healing as shown by clearance of corneal opaqueness and disappearance of hemorrhagic area, compared with the non-injected control rabbit.
To observe the wound healing degree in the histological level, rabbit eyes were isolated and fixed, and then, H&E staining and immunostaining for CD29 were carried out.

MMP-9 and MMP-2 = assay: Gelatin zymography of MSC culture supernatants; assay type: cell-based; conditions: culture medium of human MSCs on 3-D collagen gel, Substance-P 0-100 nM
Description: The culture supernatants were examined for gelatin zymography. The eletrophoresis was performed for the culture supernatant in which sample buffer without mercaptoethanol was added thereto, in 8% SDS-PAGE. The gel was renatured with 2.5% of Triton x-100 in order to remove the SDS, and then was incubated with a developing buffer (50 mM Tris-HCl, pH 7.2 100 mM NaCl, 20 mM CaCl2) at 37° C. overnight, and the gel was stained with Coomassie blue.

[3] = test system: MMP-1, MMP-2, MMP-9, MT1-MMP, TIMP-1, TIMP-2; assay: Immunoprecipitation of 35S-methionine labeled MMPs and TIMPs from MSCs; assay type: cell-based; conditions: human MSCs, Substance-P 0-100 nM, 35S-methionine labeling 16 h
Description: The effect of Substance-P on the biosynthesis of MMPs (matrix metalloproteinases) and their inhibitors was examined by immunoprecipitation of the culture medium and the cell lysates of MSCs which were labeled with ^35S-methionine. The MSCs were treated with Substance-P and labeled with 50 μCi/ml ^35S-methionine (Amersham) for 16 h. The cell lysate was prepared with a lysis buffer (1% of NP40, 10 mM Tris-HCl, pH 7.4, 150 mM NaCl, 1 mM EDTA, 2 mM PMSF). For immunoprecipitation of the secreted MMP-1, MMP-2, MMP-9, TIMP-1 and TIMP-2, the culture supernatants were incubated with their specific antibodies [anti-MMP-1 (chemicon; Cat #MAB3307, 1:100), anti-MMP-2 (Chemicon; Cat #MAB13405, 1:200), anti-MMP-9 (Calbiochem; Cat #444236, 1:100), anti-TIMP-1 (Calbiochem; Cat #IM32L, 1:250) and anti-TIMP-2 (Calbiochem; Cat #IM11L, 1:250)] for 2 h under constant rotation, and the antibodies were collected by protein-G sepharose-4B (Biorad). The pellet was washed three times with an immunoprecipitation buffer ([…], 50 mM Tris-HCl pH 7.4, 0.2% SDS and 0.5% Nadeoxycholate), once with a high salt buffer (10 mM Tris-HCl, pH 7.4, 0.5 M NaCl), and once with a low salt buffer (10 mM Tris-HCl, pH 7.4). After SDS-PAGE, the gel was soaked in 2 M sodium salicylate, dried, and exposed to the X-ray film for 2 weeks. […]

β-catenin = assay: Immunofluorescence staining of β-catenin localization in MSCs; assay type: cell-based; conditions: human MSCs, 100 nM
Description: In order to determine whether Substance-P affects the self-renewal capacity of human MSCs, β-catenin, which is the downstream effecter of the wnt signaling pathway, was examined. MSCs (Cambrex Bio Science) were plated in the density of 1×10^4/well, and incubated with MSCGM (Cambrex Bio Science). After adhesion of the cells, they were treated with Substance-P in each concentration, and incubated for 16 h and 48 h. The MSCs were fixed with 4% of paraformaldehyde and permeabilized with 0.3% of Triton X-100. After blocking nonspecific antigen with 20% normal goat serum which was diluted in phosphate buffer for 1 h, the coverslips were incubated with antibodies against β-catenin (BD Biosciencs; Cat #6010153, 1:100) for 90 min, and then with the FITC-conjugated secondary antibodies for 60 min(Vector). The cells were counterstained with DAPI, and examined by using confocal microscopy (Leica).

[4] = Substance-P 6.5 ug/kg i.v. twice, vs non-injected

With Substance-P the “degradation of the collagen gel and MSC migration” value (human MSCs [1]) was “stimulated degradation of the collagen gel and MSC migration in a dose dependent manner”, the “fibronectin induction (Western blot)” value (VEGF and fibronectin; culture supernatant of Substance-P treated human MSCs) was “induced” and the “VEGF induction (ELISA)” value (VEGF and fibronectin; culture supernatants of Substance-P treated human MSCs) was “induced”. For the same substance, the “number of viable cells compared with the control group” value (human MSCs [2]; 1 nM Substance-P) was 1.7 times, the “number of viable cells compared with the control group” value (human MSCs [2]; 10 nM Substance-P) was 2.1 times and the “number of viable cells compared with the control group” value (human MSCs [2]; 100 nM Substance-P) was 2.2 times. The “corneal regeneration (naked eye, digital picture)” value (cornea wound; Substance-P 6.5 ug/kg i.v. immediately after injury and on 2nd day, day 7, vs non-injected control) was “much faster”, the “CD29 immunostaining of cornea” value (cornea wound; [4]) was “CD 29+cells of small and spindle shape inside of collagen fibers” and the “wound healing degree in histology (H&E staining)” value (cornea wound; [4]) was “full thickness coverage of epithelium, well organized vasculature, and ordered array of dense collagen bundles”. The “healing rate (histological observation during the entire period)” value (cornea wound; Substance-P i.v. vs control group) was “speeded up the healing rate faster than the control group”, the “MMP-9 and MMP-2 activities (gelatin zymography)” value (MMP-9 and MMP-2) was “strong induction of MMP-9 and MMP-2 activities” and the “biosynthesis of MMP-1, MMP-2, MMP-9, and MT1-MMP” value [3] was “stimulated in a dose dependent manner”. The “biosynthesis of inhibitors TIMP-1 and TIMP-2” value [3] was “inhibited”, the “nuclear localization of β-catenin” value (β-catenin; 16 h after Substance-P treatment) was “only a small number of MSCs at 100 nM showed nuclear localization of β-catenin” and the “nuclear translocation of β-catenin” value (β-catenin; 48 h after Substance-P treatment) was “all the MSCs showed nuclear translocation of β-catenin”.
